Test results as given in patent US11077087B2, “Compositions comprising dihydroquercetin for use in methods for treating herpes” (BIONOOX SUISSE SA, priority 2015, dated 2021).

Columns and labels:
Type in all cases: cell-based
[1] = tested on: human mast cells; test: Mast cell degranulation (IgE/anti-IgE), beta-hexosaminidase release
From the text: Pure populations of human mast cells (HMC) are obtained by long-term culture of human normal hematopoietic progenitors (CD34^+ cells) in the continuous presence of Stem Cell Factor (SCF). Sources of these CD34^+ cells are mainly bone marrow, cord blood or peripheral blood. Usually, mononuclear cells from bone marrow and cord blood contain 0.5-1% of CD34^+ cells, whereas peripheral blood contains less than 0.1% of CD34^+ cells. Hematopoietic progenitor cells can be rapidly and efficiently enriched to a purity of about 85-98% using positive selection of magnetically labeled CD34^+ cells. Hematopoietic progenitor cells are then magnetically labeled using MACS CD34 MicroBeads. The magnetically labeled cells are enriched on positive selection columns in the magnetic field. Mononuclear cells from peripheral blood (PBMC), cord blood, or bone marrow may otherwise be obtained by density gradient centrifugation over Ficoll Paque®. Fractionation methods for producing mast cells are described in the art (see for instance Arock et al., 2008, Methods in Molecular biology 415: 241-254). Mast cell degranulation was induced by sequential treatment of mast cell by IgE, then by anti-IgE antibodies. Degranulation was subsequently measured by evaluating the release of beta-hexosaminidase, 1 h after IgE stimulation (see FIG. 4).

[2] = tested on: neutrophils; test: ROS production by neutrophils triggered by PMA, luminol chemiluminescence; settings: for Integral (total chemiluminescence counts, total ROS production) / Peak max / Slope max / T. Slope max / T. half (rise) / T. max (peak): PMA 100 ng/mL; for Integral (total chemiluminescence counts, total ROS production): 22.21 min
Experimental: (§1) PMA (12-O-tetradecanoyl-phorbol-13-acetate, Consolidated Midland Corp., Brewster, N.Y.) is dissolved at 1 mg/ml in dimethyl sulfoxide. This stock solution maintains full biological activity for several months when stored at […] in the dark. Unless otherwise specified, polymorphonuclear neutrophils (PMN), 10^6/ml in BS-H, are put into plastic centrifuge tubes (Falcon No. 2070, Falcon Labware, Div. of Becton, Dickinson & Co., Oxnard, Calif.) and brought to 37° C. PMA stock solution is added to provide a final concentration of 100 ng/ml of PMA. “Resting” (control) cells are exposed to […] dimethyl sulfoxide. A chemiluminescence (using luminol) method is used to measure Reactive Oxygen species (ROS) production (Dang et al, J Clin Invest. 2006, 116(7):2033-43; Boussetta et al, Blood. 2010, 116(26):5795-802). Superoxide production is measured by the superoxide dismutase (SOD)-inhibitable ferricytochrome c reduction assay.
Neutrophils are triggered by PMA (100 ng/mL) in the presence of different concentrations of DHQ (0, 1, 10 and 100 μM) at 37° C. in Hanks buffer containing 10 μM luminol and chemiluminescence is measured by a chemiluminometer. Total chemiluminescence counts during 22.21 min. (integrals) corresponding to total ROS production are determined.

[3] = tested on: NIH-3T3 fibroblasts; test: NIH-3T3 fibroblast proliferation, MTT assay; settings: increasing DHQ concentrations
Experimental: The NIH 3T3 cell line was purchased from the ATCC (CRL1658). Cell lines are grown in Dulbecco's Modified Eagles' Medium (DMEM) supplemented with 10% heat inactivated newborn calf serum, 100 UI/mL penicillin and 100 μg/mL streptomycin (all from Gibco BRL) at 37° C. in a humidified 5% CO2 atmosphere. DHQ is dissolved in DMSO. Cells are cultured during 48 hours in the absence or in the presence of various DHQ concentrations. NIH-3T3 fibroblasts are immortalized cells which mimic the inflammatory phenotype assessed by the abundance of actin stress fibers and high contractility.
The effects of DHQ on the growth of NIH-3T3 cells are determined using the 3-(4,5-dimetthylthiazol-2-yl)-2,5-diphenyltetrazolium bromide (MTT) assay. Briefly, cells are plated on 96 well plates at 4,000 cells per well with increasing DHQ concentrations. After 72 hours of incubation with the drug, medium is removed and replaced by complete medium+MTT (10% v/v). After 3 hours of incubation, formazan crystals are dissolved in buffer containing 10% SDS (w/v, Bio-Rad), 50% Dimethyl formamide (Sigma), pH 4.7. Absorbance of reduced formazan is measured at 580 nm. Results are presented in FIG. 5: 100% of MTT reduced is attributed to the measure performed in absence of DHQ.

[4] = tested on: polymorphonuclear neutrophils; test: Superoxide production by neutrophils, SOD-inhibitable ferricytochrome c reduction assay
Experimental: as §1
When activated by opsonized bacteria, zymozan, fMLP (Formyl-Methionyl-Leucyl-Phenylalanine) or PMA (phorbol myristate acetate), neutrophils undergo an oxidative burst resulting in the production of superoxide anion and subsequent hydrogen peroxide. The oxidative burst is mainly mediated by the NADPH oxidase activation, enzyme responsible of the superoxide anion production. […] This effect results either from the direct anion superoxide scavenging or from the inhibition of NADPH oxidase activation.

[5] = tested on: neutrophils; test: ROS production by neutrophils triggered by fMLP, luminol chemiluminescence; settings: for Integral (total chemiluminescence counts, total ROS production): 22.21 min
Experimental: Neutrophils (5×10^5) are suspended in 0.5 mL of Hanks balanced salt solution containing 10 μM luminol at 37° C. The cells are then stimulated with 10^−6M fMLP (N-formylmethionyl-leucyl-phenylalanine). Chemiluminescence is recorded with a luminometer (Berthold-Biolumat LB937). Similarly, neutrophils were triggered by fMLP (10^−6 M) in the presence of different concentrations of DHQ (0, 1, 10 and 100 μM) at 37° C. in Hanks buffer containing 10 μM luminol and chemiluminescence was measured by a chemiluminometer. Total chemiluminescence counts during 22.21 min. (integrals) corresponding to total ROS production were determined.

[6] = tested on: polymorphonuclear neutrophils; test: Oxygen consumption of polymorphonuclear neutrophils triggered by PMA and fMLP; settings: data not shown
[7] = fMLP 10^−6 M, DHQ 1 μM (inferred)
[8] = fMLP 10^−6 M, DHQ 10 μM (inferred)
[9] = fMLP 10^−6 M, DHQ 100 μM (inferred)

Q: With O=C1c2c(O)cc(O)cc2OC(c2ccc(O)c(O)c2)C1O (stereo not shown) [DHQ] as the molecule, how does the inhibition at 10 µM ([1]; Homo sapiens, Mast cell, DHQ 10 μM, beta-hexosaminidase release 1 h after IgE stimulation) read?
A: ≤ 50%

Q: What about the inhibition at 100 µM ([1]; Homo sapiens, Mast cell, DHQ 100 μM, beta-hexosaminidase release 1 h after IgE stimulation) of the same molecule?
A: 80%

Q: What about the “inhibitory activity on degranulation compared with reference molecules” value ([1]; versus kinase inhibitors and chromoglycate) of the same molecule?
A: superior to kinase inhibitors and chromoglycate

Q: What about the inhibition at 1 µM ([2]; Neutrophil, neutrophils activated by PMA, DHQ 1 μM) of the same molecule?
A: ~80%

Q: And the “Integral (total chemiluminescence counts, total ROS production)” value (from here on “Integral”) ([2]; DHQ 1 μM (line not labelled, concentration inferred))?
A: 4.509E+08

Q: What about the “Integral” value ([2]; DHQ 10 μM (line not labelled, concentration inferred)) of the same molecule?
A: 2.0172E+08

Q: What about the “Integral” value ([2]; DHQ 100 μM (line not labelled, concentration inferred)) of the same molecule?
A: 3.576E+07

Q: What about the Peak max ([2]; DHQ 1 μM (inferred)) of the same molecule?
A: 2.430E+07 cpm

Q: What about the Slope max ([2]; DHQ 1 μM (inferred)) of the same molecule?
A: 9.790E+06 cpm

Q: What about the “T. Slope max” value ([2]; DHQ 1 μM (inferred)) of the same molecule?
A: 1.78

Q: And the “T. half (rise)” value ([2]; DHQ 1 μM (inferred))?
A: 2.44

Q: What about the “T. max (peak)” value ([2]; DHQ 1 μM (inferred)) of the same molecule?
A: 11.77

Q: What about the Peak max ([2]; DHQ 10 μM (inferred)) of the same molecule?
A: 1.134E+07 cpm

Q: And the Slope max ([2]; DHQ 10 μM (inferred))?
A: 4.380E+06 cpm

Q: What about the “T. Slope max” value ([2]; DHQ 10 μM (inferred)) of the same molecule?
A: 1.55

Q: What about the “T. half (rise)” value ([2]; DHQ 10 μM (inferred)) of the same molecule?
A: 2.22

Q: And the “T. max (peak)” value ([2]; DHQ 10 μM (inferred))?
A: 9.55

Q: What about the Peak max ([2]; DHQ 100 μM (inferred)) of the same molecule?
A: 2.260E+06 cpm

Q: What about the Slope max ([2]; DHQ 100 μM (inferred)) of the same molecule?
A: 1.033E+06 cpm

Q: And the “T. Slope max” value ([2]; DHQ 100 μM (inferred))?
A: 4.66

Q: What about the “T. half (rise)” value ([2]; DHQ 100 μM (inferred)) of the same molecule?
A: 4.89

Q: And the “T. max (peak)” value ([2]; DHQ 100 μM (inferred))?
A: 11.55

Q: And the “cell viability of NIH-3T3 cells (extent of MTT reduced)” value [3]?
A: reduced

Q: What about the “cytochrome c reduction (anion superoxide production)” value (shortened to “cytochrome c reduction”) ([4]; +PMA, DHQ 1 μM) of the same molecule?
A: 0.110 dDO/min

Q: And the “cytochrome c reduction” value ([4]; +PMA, DHQ 10 μM)?
A: 0.070 dDO/min

Q: What about the “cytochrome c reduction” value ([4]; +PMA, DHQ 100 μM) of the same molecule?
A: 0.021 dDO/min

Q: And the “cytochrome c reduction” value ([4]; +fMLP, DHQ 1 μM)?
A: 0.144 dDO/min

Q: And the “cytochrome c reduction” value ([4]; +fMLP, DHQ 10 μM)?
A: 0.105 dDO/min

Q: What about the “cytochrome c reduction” value ([4]; +fMLP, DHQ 100 μM) of the same molecule?
A: 0.040 dDO/min

Q: What about the “cytochrome c reduction” value ([4]; resting neutrophils, DHQ 1 μM) of the same molecule?
A: 0.000 dDO/min

Q: What about the “cytochrome c reduction” value ([4]; resting neutrophils, DHQ 10 μM) of the same molecule?
A: 0.036 dDO/min

Q: And the “cytochrome c reduction” value ([4]; resting neutrophils, DHQ 100 μM)?
A: 0.086 dDO/min

Q: And the inhibition at 1 µM ([5]; Neutrophil, neutrophils activated by fMLP, DHQ 1 μM)?
A: ~80%

Q: And the “Integral” value ([5]; fMLP 10^−6 M, DHQ 1 μM (line not labelled, concentration inferred))?
A: 3.838E+08

Q: And the “Integral” value ([5]; fMLP 10^−6 M, DHQ 10 μM (line not labelled, concentration inferred))?
A: 1.867E+08

Q: And the “Integral” value ([5]; fMLP 10^−6 M, DHQ 100 μM (line not labelled, concentration inferred))?
A: 4.329E+07

Q: And the Peak max [5, 7]?
A: 3.731E+07 cpm

Q: What about the Slope max [5, 7] of the same molecule?
A: 2.492E+07 cpm

Q: What about the “T. Slope max” value [5, 7] of the same molecule?
A: 0.22

Q: What about the “T. half (fall)” value [5, 7] of the same molecule?
A: 3.78

Q: What about the “T. max (peak)” value [5, 7] of the same molecule?
A: 1.33

Q: And the Peak max [5, 8]?
A: 1.770E+07 cpm

Q: What about the Slope max [5, 8] of the same molecule?
A: 1.206E+07 cpm

Q: And the “T. Slope max” value [5, 8]?
A: 0.22

Q: What about the “T. half (fall)” value [5, 8] of the same molecule?
A: 3.55

Q: And the “T. max (peak)” value [5, 8]?
A: 1.33

Q: What about the Peak max [5, 9] of the same molecule?
A: 2.533E+06 cpm

Q: What about the Slope max [5, 9] of the same molecule?
A: 1.464E+06 cpm

Q: What about the “T. Slope max” value [5, 9] of the same molecule?
A: 2.00

Q: What about the “T. half (rise)” value [5, 9] of the same molecule?
A: 1.55

Q: And the “T. max (peak)” value [5, 9]?
A: 6.00

Q: And the “oxygen consumption of polymorphonuclear neutrophils” value [6]?
A: strongly inhibits
